pEC50: −log10 of the molar value.

What is called pEC50 is the negative decadic logarithm of the EC50, by convention in mol/L.

Assay [1] addresses T1, Beta-3 adrenergic receptor (Homo sapiens, UniProt P13945). The assay can be described thus: Agonistic activity to recombinant human beta-3 adrenergic receptor expressed in CHO cells by measuring cAMP accumulation. It counts as functional, cell-based. On the technique in general: Cyclic AMP is a second messenger, typically raised through Gs and lowered through Gi signalling.
Target sequence in this assay (P13945 whole entry, looked up): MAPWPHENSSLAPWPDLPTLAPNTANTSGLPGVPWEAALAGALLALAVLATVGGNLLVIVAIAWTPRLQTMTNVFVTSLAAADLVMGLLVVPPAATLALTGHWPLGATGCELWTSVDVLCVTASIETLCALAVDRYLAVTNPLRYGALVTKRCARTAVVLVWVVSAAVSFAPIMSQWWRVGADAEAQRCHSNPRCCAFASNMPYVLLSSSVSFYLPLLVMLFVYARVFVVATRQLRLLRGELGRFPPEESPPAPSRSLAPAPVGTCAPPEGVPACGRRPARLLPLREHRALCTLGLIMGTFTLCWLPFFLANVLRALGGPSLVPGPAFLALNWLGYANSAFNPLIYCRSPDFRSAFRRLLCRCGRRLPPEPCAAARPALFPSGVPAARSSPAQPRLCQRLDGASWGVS

The target of assay [2] is T1, Beta-3 adrenergic receptor. The assay can be described thus: Agonism of recombinant human beta-3 adrenergic receptor assayed by measuring cAMP accumulation in CHO cells expressing beta3-AR. It counts as functional, cell-based.
Target sequence in this assay (P13945 whole entry): as the sequence (P13945 whole entry, looked up) above
Assay [3] has as its target T1, Beta-3 adrenergic receptor. The experiment in a line: Agonistic activity against human Beta-3 adrenergic receptor by measuring cAMP accumulation in CHO cells. It counts as functional, cell-based.
Target sequence in this assay (P13945 whole entry, looked up): as above
Assay [4] concerns the target T1, Beta-3 adrenergic receptor. The experiment in a line: (§1) Agonistic activity against human Beta-3 adrenergic receptor by measuring cAMP accumulation in CHO cells expressing Beta-3 adrenergic receptor. It counts as functional, cell-based.
Target sequence in this assay (P13945 whole entry): as the sequence (P13945 whole entry, looked up) above
Assay [5] deals with Beta-1 adrenergic receptor (Homo sapiens, UniProt P08588). The experiment in a line: Agonistic activity against human Beta-1 adrenergic receptor by measuring cAMP accumulation in CHO cells expressing beta3-AR. It counts as functional, cell-based.
Assay [6] addresses Beta-3 adrenergic receptor (Rattus norvegicus) (UniProt P26255). The assay can be described thus: Agonistic activity against rat Beta-3 adrenergic receptor as cAMP accumulation in CHO cells expressing beta3-AR.
Assay [7] shares this target. Described as above. This is another data set of the same source.
The target in assay [8] is T1, Beta-3 adrenergic receptor. The assay can be described thus: Agonistic activity against human Beta-3 adrenergic receptor by measuring cAMP accumulation in CHO cells expressing beta3-AR with respect to isoproterenol at a concentration of 10e-7 M. It counts as functional, cell-based.
Target sequence in this assay (P13945 whole entry, looked up): as above
Assay [9] addresses T2, Beta-2 adrenergic receptor (Homo sapiens, UniProt P07550). The experiment in a line: (§2) Agonistic activity against human Beta-2 adrenergic receptor by measuring cAMP accumulation in CHO cells expressing beta3-AR. It counts as functional, cell-based.
Target sequence in this assay (P07550 whole entry, looked up): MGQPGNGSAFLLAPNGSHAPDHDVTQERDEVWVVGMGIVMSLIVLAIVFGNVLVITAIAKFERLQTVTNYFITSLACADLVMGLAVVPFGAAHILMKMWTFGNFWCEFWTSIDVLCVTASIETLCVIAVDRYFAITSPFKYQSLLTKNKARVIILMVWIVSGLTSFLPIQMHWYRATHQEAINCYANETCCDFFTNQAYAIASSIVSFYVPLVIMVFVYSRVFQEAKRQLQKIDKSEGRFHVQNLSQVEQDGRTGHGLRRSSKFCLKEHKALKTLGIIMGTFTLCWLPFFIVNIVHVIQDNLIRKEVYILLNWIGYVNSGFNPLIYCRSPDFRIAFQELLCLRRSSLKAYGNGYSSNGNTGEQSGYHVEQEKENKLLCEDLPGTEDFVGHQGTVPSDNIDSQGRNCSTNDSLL
Assay [10] addresses T2, Beta-2 adrenergic receptor. Described as §2. It counts as functional, cell-based. This is another data set of the same source.
Target sequence in this assay (P07550 whole entry): as the sequence (P07550 whole entry, looked up) above
Assay [11] addresses T1, Beta-3 adrenergic receptor. Described as §1. It counts as functional, cell-based. The source holds these as a separate data set.
Target sequence in this assay (P13945 whole entry, looked up): as the sequence (P13945 whole entry, looked up) above
In assay [12] the target is T1, Beta-3 adrenergic receptor. The experiment in a line: Agonistic activity against human beta-3-adrenergic receptor by measuring cAMP accumulation in CHO cells expressing Beta-3 adrenergic receptor. It counts as functional, cell-based.
Target sequence in this assay (P13945 whole entry, looked up): as above
Assay [13] deals with T1, Beta-3 adrenergic receptor. The assay can be described thus: Agonistic activity against human Beta-3 adrenergic receptor by measuring cAMP accumulation in CHO cells expressing Beta-3 adrenergic receptor with respect to isoproterenol at a concentration of 10e-7 M. It counts as functional, cell-based.
Target sequence in this assay (P13945 whole entry, looked up): as above

Chain of Beta-1 adrenergic receptor (P08588 whole entry): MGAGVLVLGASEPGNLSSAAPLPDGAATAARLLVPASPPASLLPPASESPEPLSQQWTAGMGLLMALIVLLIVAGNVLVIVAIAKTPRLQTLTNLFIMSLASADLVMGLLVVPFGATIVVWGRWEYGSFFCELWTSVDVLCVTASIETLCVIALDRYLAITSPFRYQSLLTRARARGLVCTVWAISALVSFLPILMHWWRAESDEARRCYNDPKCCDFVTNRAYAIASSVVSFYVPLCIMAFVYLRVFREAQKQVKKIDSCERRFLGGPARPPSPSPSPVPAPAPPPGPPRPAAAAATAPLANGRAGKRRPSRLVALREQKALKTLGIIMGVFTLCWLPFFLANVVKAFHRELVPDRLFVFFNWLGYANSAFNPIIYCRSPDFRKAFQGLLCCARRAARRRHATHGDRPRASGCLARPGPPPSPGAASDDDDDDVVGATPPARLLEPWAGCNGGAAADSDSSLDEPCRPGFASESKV

Take `CC(Cc1c[nH]c2cc(Cl)ccc12)NCC(O)c1cccc(Cl)c1` (centres undefined): the Intrinsic activity in [1] was 131%. The pEC50 in [2] is 7.55.
Turning to `OC(CNCCc1c[nH]c2ccccc12)c1cccc(Cl)c1` (centres undefined), the Intrinsic activity in assay [3] came out at 99%. Also, the pEC50 in [4] was 7.16.
For `C[C@@H](Cc1c[nH]c2ccccc12)NC[C@@H](O)c1cccc(Cl)c1`, the negative logarithm of the EC50 (pEC50) in [5] was 6.85; in assay [6], 7.48; in assay [2], 5.48. The Intrinsic activity in [1] turned out to be 62%; in [7] it was 108%.
`Cn1cc(CCNCC(O)c2cccc(Cl)c2)c2ccccc21` (centres undefined) displayed a cAMP accumulation in [8] of 6%.
With `C[C@H](Cc1ccc(OCC(=O)O)cc1)NC[C@H](O)c1cccc(Cl)c1`, in assay [9], the Intrinsic activity was 31%.
In turn, `Cc1[nH]c2ccccc2c1CCNCC(O)c1cccc(Cl)c1` (centres undefined) displayed a cAMP accumulation in [8] of 5%.
For the compound `CCCOc1cccc2c(CC(C)NC[C@H](O)c3cccc(Cl)c3)c[nH]c12` (some centres undefined), the Intrinsic activity in assay [1] came out at 103%. In addition, the pEC50 in assay [2] was 7.85.
Regarding `Cc1ccc2c(CC(C)NCC(O)c3cccc(Cl)c3)c[nH]c2c1` (centres undefined), the Intrinsic activity in [1] is 95%.
For `C[C@H](Cc1c[nH]c2c(OCC(=O)O)cccc12)NC[C@H](O)c1cccc(Cl)c1` [RAFABEGRON], the negative-log EC50 (pEC50) in assay [5] was 8.19; in assay [10], 7.89; in assay [6], 10.80; in assay [2], 10.21. Moreover, the Intrinsic activity in [1] was 116%; in assay [7], 110%; in [9], 26%.
For the compound `COc1cccc2c(CC(C)NCC(O)c3cccc(Cl)c3)c[nH]c12` (centres undefined), in assay [1], the Intrinsic activity turned out to be 113%.
On to `CCOc1cccc2c(CC(C)NC[C@H](O)c3cccc(Cl)c3)c[nH]c12` (some centres undefined), for which the Intrinsic activity in assay [1] turned out to be 96%.
In the case of `C[C@H](Cc1c[nH]c2ccccc12)NC[C@H](O)c1cccc(Cl)c1`, the pEC50 in assay [5] was 8.72; in [10] it was 7.60; in assay [6] it was 9.44; in [2] it was 8.27. Moreover, the Intrinsic activity in [1] turned out to be 110%; in assay [7] it was 98%; in [9], 50%.
On to `OC(CNC1CCc2[nH]c3ccccc3c2C1)c1cccc(Cl)c1` (centres undefined), for which the cAMP accumulation in assay [8] amounted to 0%.
Take `CC(Cc1c[nH]c2c(OCc3ccccc3)cccc12)NC[C@H](O)c1cccc(Cl)c1` (some centres undefined): the Intrinsic activity in assay [1] stood at 114%. Further, the pEC50 in assay [2] was 7.96.
Take `CC(Cc1c[nH]c2c(O)cccc12)NC[C@H](O)c1cccc(Cl)c1` (some centres undefined): the Intrinsic activity in [1] was 128%. Also, the pEC50 in assay [2] was 8.77.
As to `Cc1ccc2[nH]cc(CCNCC(O)c3cccc(Cl)c3)c2c1` (centres undefined), the cAMP accumulation in [8] was found to be 7%.
Turning to `COc1cccc2c(CC(C)NC[C@H](O)c3cccc(Cl)c3)c[nH]c12` (some centres undefined), the Intrinsic activity in assay [1] was 114%.
Regarding `COc1cccc2c(C[C@H](C)NC[C@H](O)c3cccc(Cl)c3)c[nH]c12`, the Intrinsic activity in assay [1] stood at 51%; in assay [7], 121%. Moreover, the values for the pEC50 in [6] and in [2] were 8.19 and 6.92, respectively.
`COc1cccc2c(C[C@@H](C)NC[C@H](O)c3cccc(Cl)c3)c[nH]c12`: the results for the Intrinsic activity in assay [1], in assay [7] and in [9] were 89%, 147% and 46%, respectively. Besides, the pEC50 in assay [10] was 8.28; in [6] it was 9.82; in assay [2], 9.44.
In the case of `C[C@@H](Cc1c[nH]c2c(OCC(=O)O)cccc12)NC[C@H](O)c1cccc(Cl)c1`, the negative logarithm of the EC50 (pEC50) was 7.85 in assay [5], 8.92 in [6] and 8.00 in assay [2]. The Intrinsic activity in [1] is 84%; in assay [7] it was 106%.
Take `Cc1cccc2c(CCNCC(O)c3cccc(Cl)c3)c[nH]c12` (centres undefined): in [8], the cAMP accumulation worked out at 0%.
In the case of `C[C@H](Cc1c[nH]c2ccccc12)NC[C@@H](O)c1cccc(Cl)c1`, the negative-log EC50 (pEC50) in assay [5] is 7.33; in assay [10], 6.48; in [6] it was 7.96; in assay [2] it was 6.66. Further, the Intrinsic activity in assay [1] stood at 119%; in assay [7], 108%; in assay [9], 23%.
As for `CC(Cc1c[nH]c2c(OCC(=O)O)cccc12)NC[C@H](O)c1cccc(Cl)c1` (some centres undefined), the Intrinsic activity in [1] is 124%. In [2], the negative-log EC50 (pEC50) is 9.96.
In the case of `CC(Cc1c[nH]c2ccccc12)NCC(O)c1cccc(Cl)c1` (centres undefined) [listing 1 of 2 here], the Intrinsic activity in assay [11] worked out at 114%.
As to `CC(Cc1c[nH]c2ccccc12)NCC(O)c1cccc(Cl)c1` (centres undefined) [listing 2 of 2 here], the negative-log EC50 (pEC50) in [4] was 7.92.
With `CC(C)(Cc1c[nH]c2ccccc12)NCC(O)c1cccc(Cl)c1` (centres undefined), the Intrinsic activity in assay [12] amounted to 118%. The same compound gave a pEC50 in [4] of 7.15.
As to `CC(Cc1c[nH]c2cc(Br)ccc12)NCC(O)c1cccc(Cl)c1` (centres undefined), the Intrinsic activity in assay [1] was found to be 98%. Also, the pEC50 in assay [2] is 7.42.
Turning to `CC(Cc1c[nH]c2ccccc12)NCC(O)c1cccc(Cl)c1` (mixture of isomers) [listing 1 of 2 here], the Intrinsic activity turned out to be 114% in assay [1], 107% in [7] and 46% in assay [9].
On to `Cc1cccc2[nH]cc(CC(C)NCC(O)c3cccc(Cl)c3)c12` (centres undefined), for which, in assay [1], the Intrinsic activity came out at 165%. In [2], the pEC50 was 7.02.
As to `Cc1cccc2[nH]cc(CCNCC(O)c3cccc(Cl)c3)c12` (centres undefined), the cAMP accumulation in [8] is 20%.
On to `CCC(Cc1c[nH]c2ccccc12)NCC(O)c1cccc(Cl)c1` (centres undefined), for which the cAMP accumulation in assay [13] turned out to be 20%.
For the compound `CC(Cc1c[nH]c2c(OC(C)C)cccc12)NC[C@H](O)c1cccc(Cl)c1` (some centres undefined), the Intrinsic activity in assay [1] was 87%. In [2], the pEC50 was 8.55.
On to `C[C@@H](Cc1c[nH]c2ccccc12)NC[C@H](O)c1cccc(Cl)c1`, for which the results for the negative-log EC50 (pEC50) in assay [5], in [6] and in [2] were 8.03, 7.89 and 6.62, respectively. Also, the Intrinsic activity in assay [1] turned out to be 97%; in assay [7], 96%.
For the compound `CC(Cc1c[nH]c2ccccc12)NCC(O)c1cccc(Cl)c1` (mixture of isomers) [listing 2 of 2 here], the values for the pEC50 in assay [10], in assay [6] and in assay [2] were 7.64, 9.01 and 7.92, respectively.
Consider `COc1ccc2c(CC(C)NCC(O)c3cccc(Cl)c3)c[nH]c2c1` (centres undefined), for which the Intrinsic activity in assay [1] was 102%.
As for `COC(=O)COc1cccc2c(CC(C)NC[C@H](O)c3cccc(Cl)c3)c[nH]c12` (some centres undefined), the Intrinsic activity in assay [1] came to 102%. Besides, the pEC50 in assay [2] is 9.04.
